# Data reported in patent US11718585B2, “Bis-cyclic guanidines as antibacterial agents” (University of South Florida, priority 2017, dated 2023).
# Key:
# six bacteria strains = assay: MIC, summary statements over the panel of tested bacteria; format: cell-based
# Procedure: (§1) Minimum Inhibitory Concentrations (MICs) against Bacteria. The antimicrobial activity of the compounds was tested on the following six bacteria strains: K. pneumoniae (ATCC 13383), P. aeruginosa (ATCC27853), E. coli (ATCC 25922), vancomycin-resistant Enterococcus faecalis (ATCC 700802), Methicillin-resistant S. aureus (MRSA, ATCC 33591), Methicillin-resistant S. epidermidis (MRSE, RP62A). The procedures were followed as reported previously (Hancock et al., Immunobiology 2006, 211, 315-322). Briefly, a single colony of each bacterium was inoculated in 3 mL TSB medium and incubated overnight at 37° C. Then the bacteria culture was diluted at 1:100 and the bacteria were allowed to grow to mid-logarithmic phase. Next, 50 μL of 2-fold serial dilutions of compounds (0.1-25 μg/mL) were added the 96-well plate containing aliquots of 50 μL of bacteria suspension (1×10^6 CFU/mL) in each well. The mixture was incubated at 37° C. for 16 h, and their absorption at 600 nm wavelength was read on a Biotek Synergy HT microtiter plate reader. […] The experiments were repeated at least three times with duplicates each time. HC50 means the concentration causing 50% hemolysis.
# E. coli [1] = assay: Time-kill study; format: cell-based; settings: for time to completely remove/kill all bacteria: 12.5 μg/mL
# Procedure: The killing activity was monitored for the first 2 h. The concentrations for compound 11 were 2×MIC, 4×MIC, and 8×MIC, respectively.
# Time-kill studies were conducted to investigate the bacterial killing kinetics of compounds 11 and 12 by using E. Coli. Briefly, the bacteria […] grew to mid-logarithmic phase in TSB medium, from which the suspension (10^6 CFU/ml) was made. The suspension was incubated with different concentrations of 11 or 12 for 10 min, 30 min, 1 h and 2 h respectively. The mixtures were diluted by 10^2 to 10^4 fold and spread on TSB agar plates. After incubation at 37° C. overnight, the colonies on the plates were counted and plotted against the incubation time. […] Cell colonies were counted in agar plates at 12.5, 25, and 50 μg/mL. Compound 11 at the concentration of 12.5 or 25 μg/mL completely removed all bacteria in 2 hours, and at 50 μg/mL it completely removed bacteria in 0.5 hour. Compound 12 killed E. Coli completely in 0.5 hour at the concentration of 12.5 μg/mL.
# S. aureus = assay: Fluorescence microscopy (DAPI/PI) of bacterial membranes, S. aureus; format: cell-based; settings: 10 μg/mL, 2 h
# Procedure: (§2) Fluorescence microscopy studies were conducted to evaluate the ability of compound 12 to compromise membranes of S. aureus (Gram-positive bacterium) and E. coli (Gram-negative bacterium). Fluorescent agent 4′,6-diamidino-2-phenylindole (DAPI) was used to stain membranes of bacterial cells with blue fluorescence regardless of cell viability, and the red fluorescence of propidium iodide (PI) due to the DNA intercalation was used to stain impaired membranes. After MRSA and E. Coli grew to mid-logarithmic phase, the compound 12 was incubated with the bacteria at 37° C. for 2 h. The mixture was then centrifuged at 5000 rpm for 15 min. The cell pellets were washed with the PBS buffer for three times, and incubated with PI (5 μg/mL) and DAPI (10 μg/mL) for 15 min sequentially on ice in the dark. The mixture was then centrifuged and the pellets were washed with the PBS buffer. Next, 10 μL of the samples were placed on chamber slides and observed under Zeiss Axio Image Zloptical microscope using 100× oil-immersion objective.
# E. coli [2] = assay: Fluorescence microscopy (DAPI/PI) of bacterial membranes, E. coli; format: cell-based; settings: 10 μg/mL, 2 h
# Procedure: as §2
# MRSA = assay: Drug-resistance study, 14 passages, MRSA; format: cell-based, S. aureus; settings: incubated at ½ MIC every day
# Procedure: (§3) Bacterial resistance tests were conducted using compound 12. The compound was incubated with either MRSA or E. Coli in the well at the concentration of half-MIC (½ MIC, 10^6 CFU/ml) every day and tested for their activity through 14 successive passages.
# E. coli [3] = assay: Drug-resistance study, 14 passages, E. coli; format: cell-based; settings: incubated at ½ MIC every day
# Procedure: as §3
# E. coli (ATCC 25922) = assay: Minimum inhibitory concentration (MIC) against E. coli; format: cell-based; settings: Escherichia coli, ATCC25922; Gram −; 16 h, 37° C.
# Procedure: as §1
# [4] = tested on: P. aeruginosa (ATCC27853); assay: MIC against P. aeruginosa; format: cell-based
# Procedure: as §1
# [5] = tested on: K. pneumoniae (ATCC 13383); assay: MIC against K. pneumoniae; format: cell-based; settings: Klebsiella pneumoniae, ATCC13383; Gram −; 16 h, 37° C.
# Procedure: as §1
# [6] = tested on: Methicillin-resistant S. aureus (MRSA, ATCC 33591); assay: MIC against MRSA; format: cell-based; settings: Staphylococcus aureus; Gram +; 16 h, 37° C.
# Procedure: as §1
# [7] = tested on: Methicillin-resistant S. epidermidis (MRSE, RP62A); assay: MIC against MRSE; format: cell-based; settings: Staphylococcus epidermidis, Gram +, 16 h, 37° C.
# Procedure: as §1
# [8] = tested on: vancomycin-resistant Enterococcus faecalis (ATCC 700802); assay: MIC against VRE; format: cell-based; settings: Gram +; 16 h, 37° C.
# Procedure: as §1
# [9] = tested on: human red blood cells (hRBCs); assay: Hemolytic assay; format: cell-based; settings: concentration causing 50% hemolysis, 37° C., 1 h
# Procedure: Hemolytic assays. The freshly drawn, K2EDTA treated human red blood cells (hRBCs) were washed with 1×PBS buffer, and centrifuged at 3500 rpm for 10 min. The step was repeated until the supernatant became clear. The supernatant was removed, and the RBCs were diluted into 5% v/v suspension. 50 μL of the suspension was incubated with 50 μL of compounds of different concentrations at 37° C. for 1 h. The mixture was centrifuged at 3500 rpm for 10 min. Subsequently, to 30 μL of the supernatant 100 μL PBS was added, and the absorbance of the mixture at 540 nm was read on a Biotek Synergy HT plate reader. The positive control was 2% Triton X-100, and the negative control was 1×PBS alone. The hemolysis activity was calculated by the formula % hemolysis=(Abssample−AbsPBS)/(AbsTriton−AbsPBS)×100%. The experiment was repeated at least three times with duplicates each time.
compound,measurement,setting,value
N#CNc1cccc(NC(=O)CN2C[C@H](Cc3ccccc3)N(CCCc3ccccc3)C2=N)c1 [Compound 7],antibacterial activity against the tested bacteria (in words),six bacteria strains,negligible activity
N=C1N(CC(=O)Nc2cccc(NC(N)=O)c2)C[C@H](Cc2ccccc2)N1CCCc1ccccc1 [Compound 8],antibacterial activity against the tested bacteria (in words),six bacteria strains,negligible activity
CCCCCCN1C(=N)N(CC(=O)Nc2ccc(NC(=O)CN3C[C@H](Cc4ccccc4)N(CCCCCC)C3=N)cc2)C[C@@H]1Cc1ccccc1 [Compound 11],time to completely remove/kill all bacteria,E. coli [1],2 h
same,time to completely remove bacteria,E. coli [1]; 50 μg/mL,0.5 h
same,antibacterial activity against the tested bacteria (in words),six bacteria strains,potent and broad-spectrum activity
CCCCCCN1C(=N)N(CC(=O)Nc2cccc(NC(=O)CN3C[C@H](Cc4ccccc4)N(CCCCCC)C3=N)c2)C[C@@H]1Cc1ccccc1 [Compound 12],membrane disruption (red fluorescence under the PI channel),S. aureus,membranes of these bacteria were disrupted
same,membrane disruption (red fluorescence under the PI channel),E. coli [2],membranes of these bacteria were disrupted
same,time to completely remove/kill all bacteria,E. coli [1],0.5 h
same,MIC after 14 passages,MRSA,virtually constant
same,MIC after 14 passages,E. coli [3],virtually constant
same,antibacterial activity against the tested bacteria (in words),six bacteria strains,potent and broad-spectrum activity
CCCCCCN1C(=N)N(CC(=O)NCCCCNC(=O)CN2C[C@H](Cc3ccccc3)N(CCCCCC)C2=N)C[C@@H]1Cc1ccccc1 [Compound 13],MIC,E. coli (ATCC 25922),0.75 to 1.5 µg/mL
same,activity against P. aeruginosa (in words),[4],reduced activity
CCCCCCN1C(=N)N(CC(=O)NCCCCCCNC(=O)CN2C[C@H](Cc3ccccc3)N(CCCCCC)C2=N)C[C@@H]1Cc1ccccc1 [Compound 14],activity against P. aeruginosa (in words),[4],reduced activity
CCCCCCN1C(=N)N(CC(=O)NCCCCCCCCNC(=O)CN2C[C@H](Cc3ccccc3)N(CCCCCC)C2=N)C[C@@H]1Cc1ccccc1 [Compound 15],activity against P. aeruginosa (in words),[4],reduced activity
CCCCCCN1C(=N)N(CC(=O)NCCCOCCOCCOCCCNC(=O)CN2C[C@H](Cc3ccccc3)N(CCCCCC)C2=N)C[C@@H]1Cc1ccccc1 [Compound 16],MIC,E. coli (ATCC 25922),1.5 to 3 µg/mL
same,MIC,"[4]; Pseudomonas aeruginosa, ATCC27853, Gram −, 16 h, 37° C.",> 25 µg/mL
same,MIC,[5],> 25 µg/mL
same,MIC,[6],0.75 µg/mL
same,MIC,[7],1.5 µg/mL
same,MIC,[8],6 to 12 µg/mL
same,Hemolysis (HC50),[9],200 µg/mL
same,antibacterial activity against the tested bacteria (in words),six bacteria strains,reduced activity
CCCCCCCCN1C(=N)N(CC(=O)Nc2ccc(NC(=O)CN3C[C@H](Cc4ccccc4)N(CCCCCCCC)C3=N)cc2)C[C@@H]1Cc1ccccc1 [Compound 17],antibacterial activity against the tested bacteria (in words),six bacteria strains,decreased activity
CCCCCCCCN1C(=N)N(CC(=O)Nc2cccc(NC(=O)CN3C[C@H](Cc4ccccc4)N(CCCCCCCC)C3=N)c2)C[C@@H]1Cc1ccccc1 [Compound 18],antibacterial activity against the tested bacteria (in words),six bacteria strains,decreased activity
CCCCCCN1C(=N)N(CC(=O)Nc2cccc(NC(=O)CN3C[C@H](CC(C)C)N(CCCCCC)C3=N)c2)C[C@@H]1CC(C)C [Compound 23],MIC,[6],0.75 to 1.5 µg/mL
same,antibacterial activity against the tested bacteria (in words),six bacteria strains,slightly less effective
